How the values were obtained:
[1] = target: BRD4 (BDI_K57-E168) (Homo sapiens (Human), UniProt O60885); assay: TR-FRET bromodomain binding assay, BRD4 first bromodomain; conditions: His-tagged BD1, Alexa647-labeled probe 100 nM
How it was run: (§1)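 Affinity for each isolated His-tagged domain was measured as competition with a fluorescent Alexa647 BET-inhibitor probe in a TR-FRET format at pH 6.0, 1 h room temperature incubation. Ki values were calculated from fitted IC50s, probe Kd and probe level (100 nM BDI, 30 nM BDII).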

[2] = target: BRD4 (BDII_E352-M457) (Homo sapiens (Human), UniProt O60885); assay: TR-FRET bromodomain binding assay, BRD4 second bromodomain; conditions: His-tagged BD2, Alexa647-labeled probe 30 nM
How it was run: as §1

Ki [1] [nM] | Ki [2] [nM] | Structure (SMILES)
10.1 | 108 | Cn1cc(-c2cc(S(C)(=O)=O)ccc2Oc2ccc(F)cc2F)c2cc(CN3CCC(N4CCOCC4)CC3)[nH]c2c1=O [Example 130, 4-[2-(2,4-difluorophenoxy)-5-(methylsulfonyl)phenyl]-6-methyl-2-{[4-(morpholin-4-yl)piperidin-1-yl]methyl}-1,6-dihydro-7H-pyrrolo[2,3-c]pyridin-7-one]
4.4 | 1 | Cn1cc(-c2cc(S(C)(=O)=O)ccc2Oc2cccc(NS(=O)(=O)C3CC3)c2)c2cc[nH]c2c1=O [Example 49, N-{3-[2-(6-methyl-7-oxo-6,7-dihydro-1H-pyrrolo[2,3-c]pyridin-4-yl)-4-(methylsulfonyl)phenoxy]phenyl}cyclopropanesulfonamide]
1040 | 13.7 | CCNC(=O)c1cc2c(-c3ccc(C(=O)N(C)C4CCN(OC(=O)CC)CC4)cc3Oc3c(C)cccc3C)cn(C)c(=O)c2[nH]1 [Example 154, 4-[2-(2,6-dimethylphenoxy)-4-{methyl[1-(propanoyloxy)piperidin-4-yl]carbamoyl}phenyl]-N-ethyl-6-methyl-7-oxo-6,7-dihydro-1H-pyrrolo[2,3-c]pyridine-2-carboxamide]
6.9 | 2.1 | Cn1cc(-c2cc(S(C)(=O)=O)ccc2Oc2cccc(NCC3CCCO3)c2)c2cc[nH]c2c1=O (centres unmarked) [Example 65, 6-methyl-4-[5-(methylsulfonyl)-2-{3-[(tetrahydrofuran-2-ylmethyl)amino]phenoxy}phenyl]-1,6-dihydro-7H-pyrrolo[2,3-c]pyridin-7-one]
3.2 | 1.1 | Cn1cc(-c2cc(S(C)(=O)=O)ccc2Oc2cccc(NS(=O)(=O)c3ccc(S(C)(=O)=O)cc3)c2)c2cc[nH]c2c1=O [Example 54, N-{3-[2-(6-methyl-7-oxo-6,7-dihydro-1H-pyrrolo[2,3-c]pyridin-4-yl)-4-(methylsulfonyl)phenoxy]phenyl}-4-(methylsulfonyl)benzenesulfonamide]
2.81 | 0.669 | CCS(=O)(=O)c1ccc(OC2CCCCC2)c(-c2cn(C)c(=O)c3[nH]c(-c4cnn(C5CCNCC5)c4)cc23)c1 [Example 149, 4-[2-(cyclohexyloxy)-5-(ethylsulfonyl)phenyl]-6-methyl-2-[1-(piperidin-4-yl)-1H-pyrazol-4-yl]-1,6-dihydro-7H-pyrrolo[2,3-c]pyridin-7-one]
26.8 | 42.3 | Cn1cc(-c2cc(S(C)(=O)=O)ccc2Oc2ccc(F)cc2F)c2cc(CN3CC(n4cncn4)C3)[nH]c2c1=O [Example 156, 4-[2-(2,4-difluorophenoxy)-5-(methylsulfonyl)phenyl]-6-methyl-2-{[3-(1H-1,2,4-triazol-1-yl)azetidin-1-yl]methyl}-1,6-dihydro-7H-pyrrolo[2,3-c]pyridin-7-one]
14 | 20 | COCCOCC(=O)N1CCC(Nc2ccc(S(C)(=O)=O)cc2-c2cn(C)c(=O)c3[nH]ccc23)CC1 [Example 98, 4-[2-({1-[(2-methoxyethoxy)acetyl]piperidin-4-yl}amino)-5-(methylsulfonyl)phenyl]-6-methyl-1,6-dihydro-7H-pyrrolo[2,3-c]pyridin-7-one]
39 | 8.5 | CCS(=O)(=O)c1ccc(Oc2ccc(Cl)cc2C#CCN2CCOCC2)c(-c2cn(C)c(=O)c3[nH]ccc23)c1 [Example 82, 4-[2-{4-chloro-2-[3-(morpholin-4-yl)prop-1-yn-1-yl]phenoxy}-5-(ethylsulfonyl)phenyl]-6-methyl-1,6-dihydro-7H-pyrrolo[2,3-c]pyridin-7-one]
23.7 | 364 | CN(C)C(=O)C1(N2CCCC2=O)CCN(Cc2cc3c(-c4cc(S(C)(=O)=O)ccc4Oc4ccc(F)cc4F)cn(C)c(=O)c3[nH]2)CC1 [Example 155, 1-({4-[2-(2,4-difluorophenoxy)-5-(methylsulfonyl)phenyl]-6-methyl-7-oxo-6,7-dihydro-1H-pyrrolo[2,3-c]pyridin-2-yl}methyl)-N,N-dimethyl-4-(2-oxopyrrolidin-1-yl)piperidine-4-carboxamide]
24 | 75 | CSCCCN1CCC(Nc2ccc(S(C)(=O)=O)cc2-c2cn(C)c(=O)c3[nH]ccc23)CC1 [Example 86, 6-methyl-4-[2-({1-[3-(methylsulfanyl)propyl]piperidin-4-yl}amino)-5-(methylsulfonyl)phenyl]-1,6-dihydro-7H-pyrrolo[2,3-c]pyridin-7-one]
1.8 | 1.6 | CCS(=O)(=O)Nc1cc(-c2cn(C)c(=O)c3[nH]ccc23)c(Oc2ccc(F)cc2F)cc1C(=O)NC1CCOCC1 [Example 12, 5-(2,4-difluorophenoxy)-2-[(ethylsulfonyl)amino]-4-(6-methyl-7-oxo-6,7-dihydro-1H-pyrrolo[2,3-c]pyridin-4-yl)-N-(tetrahydro-2H-pyran-4-yl)benzamide]
5 | 3 | Cn1cc(-c2cc(S(C)(=O)=O)ccc2Oc2cccc(NS(=O)(=O)c3ccc([N+](=O)[O-])cc3)c2)c2cc[nH]c2c1=O [Example 43, N-{3-[2-(6-methyl-7-oxo-6,7-dihydro-1H-pyrrolo[2,3-c]pyridin-4-yl)-4-(methylsulfonyl)phenoxy]phenyl}-4-nitrobenzenesulfonamide]
9.1 | 3.5 | COc1cccc(S(=O)(=O)Nc2cccc(Oc3ccc(S(C)(=O)=O)cc3-c3cn(C)c(=O)c4[nH]ccc34)c2)c1 [Example 42, 3-methoxy-N-{3-[2-(6-methyl-7-oxo-6,7-dihydro-1H-pyrrolo[2,3-c]pyridin-4-yl)-4-(methylsulfonyl)phenoxy]phenyl}benzenesulfonamide]
11 | 1.7 | CCS(=O)(=O)Nc1cc(-c2cn(C)c(=O)c3[nH]ccc23)c(Oc2ccc(F)cc2F)cc1CN1CCOCC1 [Example 4, N-[4-(2,4-difluorophenoxy)-5-(6-methyl-7-oxo-6,7-dihydro-1H-pyrrolo[2,3-c]pyridin-4-yl)-2-(morpholin-4-ylmethyl)phenyl]ethanesulfonamide]
4.6 | 2.6 | CCS(=O)(=O)Nc1cc(-c2cn(C)c(=O)c3[nH]ccc23)c(Oc2ccc(F)cc2F)c(C2CC2)c1 [Example 15, N-[3-cyclopropyl-4-(2,4-difluorophenoxy)-5-(6-methyl-7-oxo-6,7-dihydro-1H-pyrrolo[2,3-c]pyridin-4-yl)phenyl]ethanesulfonamide]
1.7 | 2 | CCS(=O)(=O)Nc1cc(-c2cn(C)c(=O)c3[nH]ccc23)c(Oc2ccc(F)cc2F)cc1C(=O)NC1CCCC1 [Example 9, N-cyclopentyl-5-(2,4-difluorophenoxy)-2-[(ethylsulfonyl)amino]-4-(6-methyl-7-oxo-6,7-dihydro-1H-pyrrolo[2,3-c]pyridin-4-yl)benzamide]
5.3 | 2.2 | Cn1cc(-c2cc(S(C)(=O)=O)ccc2Oc2cccc(NS(=O)(=O)c3cccc(C#N)c3)c2)c2cc[nH]c2c1=O [Example 57, 3-cyano-N-{3-[2-(6-methyl-7-oxo-6,7-dihydro-1H-pyrrolo[2,3-c]pyridin-4-yl)-4-(methylsulfonyl)phenoxy]phenyl}benzenesulfonamide]
8.1 | 3.1 | CN(C)CCNC(=O)c1cccc(Oc2ccc(S(C)(=O)=O)cc2-c2cn(C)c(=O)c3[nH]ccc23)c1 [Example 33, N-[2-(dimethylamino)ethyl]-3-[2-(6-methyl-7-oxo-6,7-dihydro-1H-pyrrolo[2,3-c]pyridin-4-yl)-4-(methylsulfonyl)phenoxy]benzamide]

Reference: US9957263B2, “Bromodomain inhibitors” (AbbVie Inc., priority 2013, dated 2018)
